{"source": "patent US6518317B1", "about": "“Antiviral agents” (priority 1997, dated 2003)", "key": {"NIH3T3 cells": {"tested_on": "NIH3T3 cells", "experiment": "Colony formation of NIH3T3 cells", "conditions": "5 μM, nine days, NIH3T3, three runs"}, "[1]": {"tested_on": "CEM-SS cells infected by HIV-1IIIB (CEM-3B)", "experiment": "Survival rate of HIV-infected T cells, CEM-3B", "format": "cell-based, human", "conditions": "three days", "procedure": "(§1) The cyclopentenone (1-5 μM) was added to CEM-SS cells infected by HIV-1IIIB (abbreviated as CEM-3B) or to H9 cells infected by HIV-1IIIB (abbreviated as H9-3B) and incubated for three days. In both cells, 90% or more of the cells were infected by HIV-1IIIB. Numbers of living and dead cells were counted and the survival rate of the cells was calculated therefrom.\n(§2) Thus, FIG. 3 and FIG. 4 are the graphs showing the relation between the concentration of the cyclopentenone added and the survival rate of the cells in which abscissa is the concentration (μM) of the cyclopentenone added While ordinate is the survival rate (%) of the cells after incubating for three days. FIG. 3 is the result when CEM-3B were used while FIG. 4 is the result when H9-3B were used."}, "Ad5 dlX [an adenovirus] [2]": {"tested_on": "Ad5 dlX [an adenovirus]", "experiment": "Adenovirus hexon protein in HeLa cells treated with cyclopentenone before infection", "format": "cell-based", "conditions": "10 μM or higher, six hours before infection, m.o.i. 50, 20 hours", "procedure": "After that, the cells were washed with the DMEM containing 5% of fetal bovine serum, then the DMEM containing 5% of fetal bovine serum which contained Ad5 dlX [an adenovirus; Saito, etal.; Journal ofVirology, volume 54, pages 711-719 (1985)] was added to the cells so that the cells were infected therewith and incubation was conducted for 20 hours. […] The medium was discarded, 1 ml of 10% trichloroacetic acid was added to each of the wells and the cells were recovered by a scraper.\nThen SDS-PAGE and blotting of the treated cells obtained hereinabove were conducted by the method of Example 1 to detect the expression of hexon proteins of the adenovirus. Incidentally, anti-adenovirus hexon antibody (AB 1056; manufactured by Chemicon International Inc.) was used as the primary antibody."}, "Ad5 dlX [an adenovirus] [3]": {"tested_on": "Ad5 dlX [an adenovirus]", "experiment": "Amount of viral DNA in HeLa cells treated before infection with adenovirus", "format": "cell-based", "conditions": "5 μM or more", "procedure": "(3) Viral DNA was extracted according to a method mentioned in “Protocols for Experiments of Virus” (pages 24-25; published by Medical View) from the HeLa cells which were treated with the cyclopentenone and infected by adenovirus followed by incubation by the same manner as in Example 2-(2).\nThus, cells infected by virus were washed with a saline solution buffered by phosphoric acid, suspended in 1 ml of aqueous solution of 0.6% sodium laurylsulfate (SDS) and 10 mM EDTA and 3.0 ml of 5M aqueous solution of sodium chloride was added thereto. The mixture was allowed to stand at 0° C. for one hour and centrifuged and 3 ml of ethanol was added to the resulting supernatant liquid followed by mixing. The precipitate obtained by centrifugal separation was dissolved in 0.2 ml of TE buffer (10 mM Tris-HCl of pH 8.0 and 1 mM EDTA), then 2 μl of 10% SDS and 4 μl of 10 mg/ml proteinase K (manufactured by Takara Shuzo) were added thereto and the mixture was kept at 37° C. for one hours. This was extracted with a mixture of equal amounts of phenol and chloroform twice, 20 μl of 3M sodium acetate and 400 μl of ethanol were added to the aqueous layer, the mixture was centrifuged and the precipitate was dissolved in 50 μl of the TE buffer to give a DNA solution. […]"}, "[4]": {"tested_on": "adenovirus type 5 (Adenoid 75; ATCC VR-5)", "experiment": "Amount of viral DNA in HeLa cells, cyclopentenone before and after infection", "format": "cell-based", "conditions": "5 μM or more", "procedure": "(6) Amount of the viral DNA was measured by the same manner as in Example 2-(3) from the HeLa cells which were treated with the cyclopentenone infected by the adenovirus type 5 (Adenoid 75; ATCC VR-5) followed by incubating by the same manner as in Example 2-(5)."}, "NIH3T3/Y-1": {"tested_on": "NIH3T3/Y-1", "experiment": "Colony formation of control-vector cell strain NIH3T3/Y-1", "conditions": "5 μM, nine days, NIH3T3/Y-1, three runs"}, "HIV-1IIIB": {"tested_on": "HIV-1IIIB", "experiment": "p24 antigen in supernatant liquid of CEM-3B culture", "format": "cell-based", "conditions": "three days", "procedure": "as §1\nConcentration of the p24 antigen contained in the supernatant liquid of the culture after incubation for three days in the case of Example 5-(2) was measured. The result was that the concentration of p24 decreased corresponding to the centration of the cyclopentenone added thereto whereupon the anti-HIV action was noted. In Table 10, the figures in parentheses are the ratio of each of the supernatant liquid of the cell cultures (when none of the cyclopentenone was added) to the concentration of p24 expressed in terms of %."}, "[5]": {"tested_on": "adenovirus type 5 (Adenoid 75; ATCC VR-5)", "experiment": "Adenovirus hexon protein in HeLa cells, cyclopentenone before and after infection", "format": "cell-based", "conditions": "10 μM or more", "procedure": "(5) HeLa cells were incubated by the same manner as in Example 2-(2) and treated with the cyclopentenone. After that, the cells were infected by the adenovirus type 5 (Adenoid 75; ATCC VR-5) by the same manner as in Example 2-(4) and incubated in a medium to which the cyclopentenone was added. After the incubation, detection of the hexon proteins of adenovirus was conducted by the same manner as in Example 2-(2)."}, "[6]": {"tested_on": "H9 cells infected by HIV-1IIIB (H9-3B)", "experiment": "Survival rate of HIV-infected T cells, H9-3B", "format": "cell-based, human", "conditions": "three days", "procedure": "as §1, §2"}, "[7]": {"experiment": "Anti-inflammatory test of TPA in conchae of mice", "format": "in vivo", "conditions": "2.5 mg (per mouse) applied to concha of the mouse"}, "[8]": {"tested_on": "carcinogenesis caused by a two-stage carcinogenesis on skin", "experiment": "Two-stage (DMBA/TPA) carcinogenesis on skin of mice", "format": "in vivo, mice of ICR strain", "conditions": "2.5 mg per mouse", "procedure": "Hair on the back of mice of ICR strain (purchased from Nippon SLC; seven weeks age; female) was shaved and DMBA (dimethylbenzanthracene) as an initiator in a form of a solution in acetone was applied thereto at the dose of 50 μg/mouse.\nThus, FIG. 5 is a graph showing the anti-carcinogenic action of the cyclopentenone in which ordinate is a carcinogenic rate while abscissa is time (weeks). In the graph, open triangles, black triangles and open circles stand for a group treated with 2.5 mg of the cyclopentenone per mouse (12 mice in total), a group treated with 0.8 mg of the cyclopentenone per mouse (11 mice in total) and a control group (12 mice in total), respectively."}}}
{"smiles": "O=C1C=CC(O)C1O", "note": "(stereo not shown) [cyclopentenone, 4,5-dihydroxy-2-cyclopenten-1-one]", "values": [{"measurement": "Numbers (average ± SD) of the Colonies", "setting": "NIH3T3 cells", "result": "85.3 ± 4.0"}, {"measurement": "survival rate of the cells", "setting": "[1]; 3 μM", "result": "significantly decreased"}, {"measurement": "survival rate of the cells", "setting": "[1]; 5 μM", "result": "further decreased"}, {"measurement": "amount of the hexon protein compared with the control", "setting": "Ad5 dlX [an adenovirus] [2]", "result": "apparently decreased"}, {"measurement": "amount of viral DNA compared with the control", "setting": "Ad5 dlX [an adenovirus] [3]", "result": "apparent decrease"}, {"measurement": "amount of the viral DNA compared with the control", "setting": "[4]", "result": "apparent decrease"}, {"measurement": "Numbers (average ± SD) of the Colonies", "setting": "NIH3T3/Y-1", "result": "71.3 ± 2.3"}, {"measurement": "Concentration of p24 in Supernatant Liquid of the cell cultures", "setting": "HIV-1IIIB; 1 μM", "result": 232, "unit": "ng/mL"}, {"measurement": "ratio to the concentration of p24 when none of the cyclopentenone was added", "setting": "HIV-1IIIB; 1 μM", "result": 83, "unit": "%"}, {"measurement": "Concentration of p24 in Supernatant Liquid of the cell cultures", "setting": "HIV-1IIIB; 3 μM", "result": 176, "unit": "ng/mL"}, {"measurement": "ratio to the concentration of p24 when none of the cyclopentenone was added", "setting": "HIV-1IIIB; 3 μM", "result": 63, "unit": "%"}, {"measurement": "Concentration of p24 in Supernatant Liquid of the cell cultures", "setting": "HIV-1IIIB; 5 μM", "result": 175, "unit": "ng/mL"}, {"measurement": "ratio to the concentration of p24 when none of the cyclopentenone was added", "setting": "HIV-1IIIB; 5 μM", "result": 63, "unit": "%"}, {"measurement": "amount of the hexon proteins compared with the control", "setting": "[5]", "result": "apparent decrease"}, {"measurement": "survival rate of the cells", "setting": "[6]; 3 μM", "result": "significantly decreased"}, {"measurement": "survival rate of the cells", "setting": "[6]; 5 μM", "result": "further decreased"}, {"measurement": "anti-inflammatory activity", "setting": "[7]", "result": "no anti-inflammatory activity"}, {"measurement": "carcinogenic rate", "setting": "[8]; applied one hour before each TPA, within 15 weeks (1 mouse out of 12)", "result": 8.3, "unit": "%"}, {"measurement": "carcinogenic rate", "setting": "[8]; within and after 19 weeks (3 mice out of 12)", "result": 25, "unit": "%"}]}
